Assay results as given in patent US20100120690A1, “Polypeptides Having Antimicrobial Activity and Polynucleotides Encoding Same” (Novozymes Adenium Biotech A/S, priority 2005, published 2010).

Legend:
Type in all cases: cell-based
[1] = test system: Staphylococcus aureus, MRSA ST5 (2001); experiment: MIC, NCCLS/CLSI guidelines (Example 5), strain D; settings: relative to wildtype Plectasin; average of two independent experiments
Protocol: (§1) Plectasin wild-type (SEQ ID NO: 1) and several variants of Plectasin were expressed and purified. The Minimal Inhibitory Concentration (MIC) was determined to test for their antimicrobial activity following the NCCLS guidelines from CLSI (Clinical and Laboratory Standards Institute; formerly known as National Committee for Clinical and Laboratory Standards).
(§2) The peptides were tested against the following strains: • A: Staphylococcus aureus, ATCC 29213; • B: Staphylococcus aureus, ATCC 25923; • C: Staphylococcus aureus, ATCC 29737; • D: Staphylococcus aureus, MRSA ST5 (2001), multi-resistant clinical human isolate from Statens Serum Institut, Denmark; • E: Staphylococcus aureus, MRSA ST80 (2003), multi-resistant clinical human isolate from Statens Serum Institut, Denmark.
(§3) All MIC values represent an average of two independent experiments; and all results in Table 5 are expressed relative to wildtype Plectasin:
(§4) 0: >100% of Plectasin wildtype MIC; 1: 80-100% of Plectasin wildtype MIC; 2: 50-80% of Plectasin wildtype MIC; 3: <50% of Plectasin wildtype MIC.

[2] = test system: Staphylococcus aureus, ATCC 29213; experiment: MIC, NCCLS/CLSI guidelines (Example 5), strain A; settings: relative to wildtype Plectasin; average of two independent experiments
Protocol: as §1, §2, §3, §4

[3] = test system: Staphylococcus aureus, ATCC 25923; experiment: MIC, NCCLS/CLSI guidelines (Example 5), strain B; settings: relative to wildtype Plectasin; average of two independent experiments
Protocol: as §1, §2, §3, §4

[4] = test system: Staphylococcus aureus, ATCC 29737; experiment: MIC, NCCLS/CLSI guidelines (Example 5), strain C; settings: relative to wildtype Plectasin; average of two independent experiments
Protocol: as §1, §2, §3, §4

[5] = test system: panel of 6 different strains of Staphylococcus aureus; experiment: Average MIC, NCCLS/CLSI guidelines using caMHB (Example 6); settings: average over 6 S. aureus strains, duplicate; MIC above 32 counted as 64; read after 18-24 hours at 37° C.
Protocol: A large number of antimicrobial peptides of the invention were tested against a panel of 6 different strains of Staphylococcus aureus listed below:
Staphylococcus aureus, ATCC29213, MSSA, NCCLS reference strain; Staphylococcus aureus, ATCC25923, MSSA, NCCLS reference strain; Staphylococcus aureus, ATCC29737, MSSA; Staphylococcus aureus, E33235, MSSA; Staphylococcus aureus, 698-01, MRSA ST5, Str, Kan, Oxa; Staphylococcus aureus, 566-03, MRSA ST80, Oxa, Tet, Fus, Kan.
The staphylococci were exposed to the following peptide concentrations: 32; 16; 8; 4; 2; 1; 0.5; 0.25; 0.13; […]; and 0.03 microgram/mL. All peptides were purified, HPLC quantified and the concentrated peptides (>160 micrograms/mL) were diluted to 160 micrograms/mL in peptide dilution buffer (0.1% BSA, 0.01% Acetic Acid).
The MIC determination was done essentially as described by NCCLS/CLSI guidelines using caMHB. The MICs were read after 18-24 hours of 37° C. incubations and recorded along with the CFU in the table below.
A total number of 95 antimicrobial peptides of the invention were evaluated in duplicate against the 6 bacterial strains described above.
In the majority of the double determinations (93%), the MIC varied <2 fold. An average MIC is tabulated below. If the MIC was above 32 micrograms/mL, a value of 64 was used to calculate the average.

[6] = test system: Staphylococcus aureus, MRSA ST80 (2003); experiment: MIC, NCCLS/CLSI guidelines (Example 5), strain E; settings: relative to wildtype Plectasin; average of two independent experiments
Protocol: as §1, §2, §3, §4

[7] = test system: Staphylococcus carnosus ATCC51365; experiment: Yeast screening assay: radial diffusion assay of yeast supernatants; set-up: key: An activity of 3 is better than Plectasin; An activity of 2 corresponds to the activity of Plectasin; 1 is worse than Plectasin; settings: yeast supernatant, clearing zone in radial diffusion assay
Summary of the method: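 Activity scores (1 worse, 2 equal, 3 better than wild-type plectasin) come from the size of the radial-diffusion clearing zone against S. carnosus at 5×10^5 cfu/mL. Test samples were culture supernatants of yeast transformants induced with galactose for 3 days at 30 °C, and plates were developed at 37 °C with MTT.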

Substance | Relative MIC, strain D [1] | Relative MIC, strain A [2] | Relative MIC, strain B [3] | Relative MIC, strain C [4] | Average MIC [5] [micrograms/mL] | Relative MIC, strain E [6] | Activity (antimicrobial activity relative to the activity of plectasin) [7]
D9A + K38R: variant of Plectasin (SEQ ID NO: 1) (GFGCNGPWAEDDMQCHNHCKSIKGYKGGYCAKGGFVCRCY) | 3 (<50% of Plectasin wildtype MIC) | 3 (<50% of Plectasin wildtype MIC) | 3 (<50% of Plectasin wildtype MIC) | 3 (<50% of Plectasin wildtype MIC) | 4 | 3 (<50% of Plectasin wildtype MIC) | –
D9A + Q14H + K26R + V36L: variant of Plectasin (SEQ ID NO: 1) (GFGCNGPWAEDDMHCHNHCKSIKGYRGGYCAKGGFLCKCY) | 3 (<50% of Plectasin wildtype MIC) | 3 (<50% of Plectasin wildtype MIC) | 3 (<50% of Plectasin wildtype MIC) | 3 (<50% of Plectasin wildtype MIC) | 1 | 3 (<50% of Plectasin wildtype MIC) | –
D9N + M13L + Q14R: variant of Plectasin (SEQ ID NO: 1) (GFGCNGPWNEDDLRCHNHCKSIKGYKGGYCAKGGFVCKCY) | 3 (<50% of Plectasin wildtype MIC) | 3 (<50% of Plectasin wildtype MIC) | 3 (<50% of Plectasin wildtype MIC) | 3 (<50% of Plectasin wildtype MIC) | 1 | 3 (<50% of Plectasin wildtype MIC) | –
D9N + Q14H + K38R: variant of Plectasin (SEQ ID NO: 1) (GFGCNGPWNEDDMHCHNHCKSIKGYKGGYCAKGGFVCRCY) | 3 (<50% of Plectasin wildtype MIC) | 3 (<50% of Plectasin wildtype MIC) | 3 (<50% of Plectasin wildtype MIC) | 3 (<50% of Plectasin wildtype MIC) | 4 | 2 (50-80% of Plectasin wildtype MIC) | –
D9S + M13L + Q14H: variant of Plectasin (SEQ ID NO: 1) (GFGCNGPWSEDDLHCHNHCKSIKGYKGGYCAKGGFVCKCY) | 3 (<50% of Plectasin wildtype MIC) | 3 (<50% of Plectasin wildtype MIC) | 3 (<50% of Plectasin wildtype MIC) | 3 (<50% of Plectasin wildtype MIC) | 3 | 3 (<50% of Plectasin wildtype MIC) | –
D9S + Q14K + V36L: variant of Plectasin (SEQ ID NO: 1) (GFGCNGPWSEDDMKCHNHCKSIKGYKGGYCAKGGFLCKCY) | 3 (<50% of Plectasin wildtype MIC) | 3 (<50% of Plectasin wildtype MIC) | 3 (<50% of Plectasin wildtype MIC) | 3 (<50% of Plectasin wildtype MIC) | 1 | 3 (<50% of Plectasin wildtype MIC) | –
D9S + Q14L + K26R: variant of Plectasin (SEQ ID NO: 1) (GFGCNGPWSEDDMLCHNHCKSIKGYRGGYCAKGGFVCKCY) | 3 (<50% of Plectasin wildtype MIC) | 3 (<50% of Plectasin wildtype MIC) | 3 (<50% of Plectasin wildtype MIC) | 3 (<50% of Plectasin wildtype MIC) | 3 | 3 (<50% of Plectasin wildtype MIC) | –
GFGCNGPWDEDDMQCHNHCKSIKRYKGGYCAKGGFVCKCY [Mutation G24R] | 2 (50-80% of Plectasin wildtype MIC) | 1 (80-100% of Plectasin wildtype MIC) | 2 (50-80% of Plectasin wildtype MIC) | – | 8 | 2 (50-80% of Plectasin wildtype MIC) | 2
GFGCSGPWDEDDMRCHSHCKSIRGYKGGYCAKGGFVCKCY [N5S + Q14R + N17S + K23R] | 3 (<50% of Plectasin wildtype MIC) | 1 (80-100% of Plectasin wildtype MIC) | 3 (<50% of Plectasin wildtype MIC) | 3 (<50% of Plectasin wildtype MIC) | 8 | – | 3
M13G + N17R + G33A: variant of Plectasin (SEQ ID NO: 1) (GFGCNGPWDEDDGQCHRHCKSIKGYKGGYCAKAGFVCKCY) | 3 (<50% of Plectasin wildtype MIC) | 3 (<50% of Plectasin wildtype MIC) | 3 (<50% of Plectasin wildtype MIC) | 3 (<50% of Plectasin wildtype MIC) | 2 | 3 (<50% of Plectasin wildtype MIC) | –
M13T + Q14K + K26R: variant of Plectasin (SEQ ID NO: 1) (GFGCNGPWDEDDTKCHNHCKSIKGYRGGYCAKGGFVCKCY) | 2 (50-80% of Plectasin wildtype MIC) | 1 (80-100% of Plectasin wildtype MIC) | 3 (<50% of Plectasin wildtype MIC) | 3 (<50% of Plectasin wildtype MIC) | 7 | 0 (>100% of Plectasin wildtype MIC) | –
M13V + N17T: variant of Plectasin (SEQ ID NO: 1) (GFGCNGPWDEDDVQCHTHCKSIKGYKGGYCAKGGFVCKCY) | 3 (<50% of Plectasin wildtype MIC) | – | 3 (<50% of Plectasin wildtype MIC) | 3 (<50% of Plectasin wildtype MIC) | 3 | 3 (<50% of Plectasin wildtype MIC) | –
M13Y + Q14K + K26R: variant of Plectasin (SEQ ID NO: 1) (GFGCNGPWDEDDYKCHNHCKSIKGYRGGYCAKGGFVCKCY) | 3 (<50% of Plectasin wildtype MIC) | 2 (50-80% of Plectasin wildtype MIC) | 3 (<50% of Plectasin wildtype MIC) | 3 (<50% of Plectasin wildtype MIC) | 5 | 3 (<50% of Plectasin wildtype MIC) | –
